Measurements reported in paper PMC5980995, “An allostatic mechanism for M2 pyruvate kinase as an amino-acid sensor” (Biochemical Journal, 2018).

Columns and labels:
M2PYK [1] = biological target: T1, M2PYK (Homo sapiens, UniProt P14618); test: Enzyme kinetics of M2PYK for PEP with saturating ADP in presence of amino acids; type: biochemical; conditions: kinetic curves at different inhibitor concentrations
T1 construct: and N-terminal domain (blue, residues 13–43. Residues 1–12, as well as additional residues from the His6-tagged construct); made in house; host or cells: Escherichia coli BL21(DE3), pET28a
T1 sequence (P14618 whole entry, the tested form may be a part): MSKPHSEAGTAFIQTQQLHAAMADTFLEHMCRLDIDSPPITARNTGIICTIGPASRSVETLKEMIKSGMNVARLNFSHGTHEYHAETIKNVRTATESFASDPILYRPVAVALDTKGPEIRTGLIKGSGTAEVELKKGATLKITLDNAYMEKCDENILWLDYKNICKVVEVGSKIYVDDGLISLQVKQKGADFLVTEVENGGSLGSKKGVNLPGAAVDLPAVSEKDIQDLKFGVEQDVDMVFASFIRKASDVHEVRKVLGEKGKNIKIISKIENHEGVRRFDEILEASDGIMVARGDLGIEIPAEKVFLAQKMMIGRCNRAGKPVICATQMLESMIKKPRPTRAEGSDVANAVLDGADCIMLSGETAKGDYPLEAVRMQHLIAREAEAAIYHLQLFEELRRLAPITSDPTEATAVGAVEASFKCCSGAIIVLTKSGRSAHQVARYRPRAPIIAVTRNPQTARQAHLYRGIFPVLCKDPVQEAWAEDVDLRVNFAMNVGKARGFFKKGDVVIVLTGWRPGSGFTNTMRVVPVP
Description: (§1) For the determination of kinetics of M2PYK in the absence/presence of amino acid modulators, enzymatic activity assays were performed as follows. A 5 µl aliquot of 0.002 mg/ml M2PYK in PBS-CM was incubated with different concentrations of amino acids in PBS-CM supplemented with 1 mM dithiothreitol at 37°C at pH 7.4 for 10 min. Then, the same volume of assay buffer [PBS-CM supplemented with 10 mM MgCl2, 100 mM KCl, 1 mM NADH, 40 µmol/min ml LDH, as well as saturating ADP (4 mM) and titrated substrate PEP (0.15–10 mM)] was added. […] For these uncompetitive inhibitors the Ki values were calculated to be equal to IC50/2.
Values of the kinetic parameters (Vmax, K0.5(PEP), and nH) were determined by fitting the equation below to the data. V=Vmax×[PEP]^nH/K0.5nH+[PEP]^nH The Lineweaver–Burk plots were fit using the equation below: Y=K0.5nH+(1/x)^nH/Vmax×(1/x)^nH The Berkley Madonna software (http://www.berkeleymadonna.com/) was used to model approximate proportions of monomer and tetramer M2PYK at given total protein concentrations. The calculation was based on a simplified tetramer [T] monomer [M] equilibrium: [T]⇌[M]+[M]+[M]+[M]withKd=[M]^4/[T] […] The association rate constant was scaled to give a Kd of 0.9 µM, which was estimated from analytical gel chromatography results.
The kinetic curves are shown in Figure 4 and Supplementary Figure S4.

M2PYK [2] = biological target: T1, M2PYK; test: ELISA with anti-M2PYK antibody binding the C–C interface (monomer–tetramer equilibrium); conditions: 10 mM amino acid; 0.0039–2.5 µg/ml M2PYK; 1 h, pH 7.4, room temperature
From the text: For the production of specific antibodies, a peptide immunogen (Supplementary Figure S1) specific for M2PYK was covalently conjugated with the carrier protein BSA, and injected into Balb/c female mice (6–7 weeks) at 2-week intervals. A mouse showing best selectivity for M2PYK was chosen as a spleen donor. After the production of a hybridoma, a cell line secreting a specific monoclonal antibody was screened and expanded. The specific monoclonal antibody against M2PYK was identified, purified and conjugated with horseradish peroxidase (HRP) for further ELISAs.
A stock solution of anti-His-tag antibody in carbonate buffer (pH 9.6) was coated onto wells at 50 µl/well at 4°C overnight. The wells were then blocked with 100 µl/well of PBS/Tween 20/3% BSA for 1 h at room temperature. Titrated M2PYK (2.5–0.0039 µg/ml) was incubated with or without ligands (10 mM for all amino acids and 1 mM for FBP) in PBS/Tween 20/3% BSA at room temperature for 1 h. Then, 100 µl of the solution was added to each prepared well for an incubation of 1 h. Afterwards, a 100 µl aliquot of PBS/Tween 20/3% BSA containing 4 µg/ml HRP-conjugated M2PYK antibody was added to each well and incubated for 1 h at room temperature. Electrochemiluminescence solution was added at 50 µl/well to develop the luminescence, which was read immediately with a plate reader. Three washes with PBS/Tween 20/3% BSA were performed between each step.
To investigate the effect of ligand binding on monomer–tetramer equilibrium at lower protein concentrations, we developed an ELISA assay. […] As the epitope is hidden in the tetrameric form of M2PYK, antibody binding on the C–C interface of M2PYK reflects the amount of monomer/dimer but not tetramer. The ELISA tests were performed using low concentrations of His6-M1/2PYK (0.0039–2.5 µg/ml) incubated with no ligand or 10 mM of each amino acid for 1 h in PBS-CM at pH 7.4 at room temperature. The incubated solutions were added to 96-well plates precoated with anti-His-tag antibodies. HRP-conjugated M2PYK antibodies were then incubated, followed by luminescence reading.

M2PYK [3] = biological target: T1, M2PYK; test: M2PYK activity at sub-saturating PEP and ADP: amino-acid IC50/Ki and serine versus alanine/phenylalanine competition; type: biochemical; conditions: for Ki: calculated as IC50/2 (uncompetitive inhibitors), read-out: inhibitor constant (Ki) against M2PYK; for IC50: sub-saturating PEP and ADP, 0 µM serine, read-out: IC50 against M2PYK
Description: as §1, with “min.” for “min. Then, the same volume of assay buffer [PBS-CM supplemented with 10 mM MgCl2, 100 mM KCl, 1 mM NADH, 40 µmol/min ml LDH, as well as saturating ADP (4 mM) and titrated substrate PEP (0.15–10 mM)] was added.”
The decrease in absorbance at 340 nm was measured for 5 min at 37°C using a plate reader. […]

M2PYK [4] = biological target: T1, M2PYK; test: Analytical gel chromatography of M2PYK oligomerisation/dissociation; conditions: 10 mM amino acid; 0.1 mg/ml M2PYK; PBS-CM pH 7.4, room temperature, 12 h
Description: Analytical gel chromatography was performed to characterise the oligomerisation/dissociation of M2PYK in the presence/absence of different amino acids. Aliquots of 400 µl of 0.1 mg/ml purified M2PYK were incubated with or without 10 mM amino acids in PBS-CM at room temperature at pH 7.4 overnight. After the incubation, samples were loaded independently onto a Superdex 200 PC 3.2/30 gel-filtration column. Samples of 25 µl were injected, and the column flow rate was maintained at 0.1 ml/min. Protein peaks were monitored using the absorbance at both 280 and 214 nm. The retention volumes for the M2PYK peaks were the same as those identified by SEC-MALS as monomer and tetramer peaks (using the same Superdex 200 column) in our previous study.
Analytical gel chromatography was used to investigate the effects of amino acids on the oligomerisation of M2PYK. […] Dissociation studies of M2PYK using SEC-MALS [13] and ultracentrifugation show the predominant forms in solution are tetramer and monomer.

M2PYK [5] = biological target: T1, M2PYK; test: X-ray co-crystal structures of M2PYK with amino acids; conditions: wild-type M2PYK co-crystallised with the amino acid
Description: Single crystals of M2PYK were obtained at 17°C by vapour diffusion using the hanging-drop technique. The drops were formed by mixing 1.5 µl of wild-type M2PYK (20 mg/ml) solution containing ligands with 1.5 µl of reservoir solution (composed of 11–16% PEG 3350, 100 mM sodium cacodylate, 50 mM MgCl2, and 100 mM KCl). […] The pH for obtaining optimal crystals was 7.2–7.8. Before data collection, crystals were dipped in a freezing solution consisting of reservoir solution supplemented with the same concentration of ligands as in the original solution, as well as up to 35% PEG 3350, which eliminated the appearance of ice rings. Diffraction data were collected at the Diamond synchrotron radiation facility in Oxfordshire, U.K. on beamline I03 (for the M2PYK/Ala structure), I04-1 (for the M2PYK/Phe and the M2PYK/Trp structures), and I24 (for the M2PYK/Ser structure). All datasets were obtained from a single crystal flash-frozen in liquid nitrogen. A more detailed description and discussion of the crystallisation trials is in the Supplementary Material.
All four M2PYK structures were solved by molecular replacement using the program PHASER [40]. A monomer (Chain A) from the previously determined tetrameric structure of M2PYK (in R-state, PDB ID: 4B2D) served as the search model for the M2PYK/Ser structure. Chain A of a different M2PYK structure (in T-state, PDB ID: 4FXJ) was used as the search model for the M2PYK/Phe, M2PYK/Ala, and M2PYK/Trp structures. There were clear molecular replacement solutions for all structures. The resulting models were then subjected to 10 cycles of rigid body refinement using the program REFMAC [41]. Afterwards, manual changes were made to models to adjust side chain conformations and to add additional residues to the N terminus using COOT [42]. The models were then subjected to several rounds of translation libration screw refinement and restrained refinement, and ligand molecules were added where clear unbiased Fo–Fc electron density was observed. Water molecules were added to the model using COOT, and after several rounds of restrained refinement, R/Rfree values converged.

M1PYK [6] = biological target: T2, M1PYK (Homo sapiens, UniProt P14618); test: PYK activity modulator screen (LDH-coupled enzymatic activity assay); type: biochemical; conditions: 2.5 mM ligand, sub-saturating PEP and ADP; for inhibition of M1PYK activity: pH 7.4, 37°C, relative to no ligand
T2 construct: made in house; host or cells: Escherichia coli BL21(DE3), pET28a
T2 sequence (P14618 1-531 isoform P14618-2): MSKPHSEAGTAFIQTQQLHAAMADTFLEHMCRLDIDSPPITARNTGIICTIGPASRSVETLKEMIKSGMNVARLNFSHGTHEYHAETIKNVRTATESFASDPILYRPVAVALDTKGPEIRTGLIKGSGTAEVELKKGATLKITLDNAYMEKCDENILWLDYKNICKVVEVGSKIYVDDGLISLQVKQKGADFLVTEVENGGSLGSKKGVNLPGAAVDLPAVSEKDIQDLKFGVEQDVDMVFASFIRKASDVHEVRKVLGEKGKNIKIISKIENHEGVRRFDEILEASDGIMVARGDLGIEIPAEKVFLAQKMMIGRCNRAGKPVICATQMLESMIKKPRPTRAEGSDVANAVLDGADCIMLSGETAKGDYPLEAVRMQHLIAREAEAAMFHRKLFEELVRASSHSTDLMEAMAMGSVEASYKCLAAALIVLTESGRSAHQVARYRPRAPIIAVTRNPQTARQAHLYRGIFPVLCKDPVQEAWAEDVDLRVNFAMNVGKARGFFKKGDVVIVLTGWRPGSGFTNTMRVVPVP
Description: (§2) For the identification of PYK activity modulators, enzymatic activity assays were performed as follows. A 1.9 µl aliquot of 20 mg/ml M1 or M2PYK in PBS-CM was added individually into […] of different amino acids at 5 mM in PBS-CM at pH 7.4 followed by an incubation at 37°C for 10 min. Then, the same volume of assay buffer [PBS-CM supplemented with 10 mM MgCl2, 100 mM KCl, 1 mM NADH, 40 µmol/min ml lactate dehydrogenase (LDH), as well as sub-saturating substrates PEP (1 mM) and ADP (0.8 mM)] was added into the protein solution and mixed (so the concentrations of all reagents were halved). The decrease in absorbance at 340 nm (the absorbance of NADH) was measured for 5 min at 37°C using a plate reader. PEP, ADP, LDH, NADH, FBP and all amino acids were from Sigma–Aldrich.
(§3) FBP was used as a positive control. The reaction was performed after pre-incubation in the presence of sub-saturating substrates in PBS at pH 7.4 at 37°C as described in Experimental Procedures.

M2PYK [7] = biological target: T1, M2PYK; test: as above; type: biochemical; conditions: 2.5 mM ligand, sub-saturating PEP and ADP; for activation of M2PYK activity: pH 7.4, 37°C, relative to no ligand
Description: as §2, §3

M1PYK [8] = system: M1PYK; set-up: method as in PMID 5166752, PMID 16634623; conditions: cited from earlier work
cell proliferation = system: cell proliferation; set-up: method as in PMID 23530218; conditions: via activation or inhibition of M2PYK; cited from earlier work
M2PYK [9] = system: M2PYK; set-up: method as in Chaneton et al. 2012; conditions: 4 nM M2PYK; ref Chaneton et al. 2012; cited from earlier work
M2PYK [10] = biological target: T1, M2PYK; set-up: method as in PMID 23530218; conditions: previously shown; cited from earlier work

Compound | mode of inhibition of M2PYK (M2PYK [1]) | oligomeric state of M2PYK at low protein concentration (M2PYK [2]) | Ki (M2PYK [3]) [µM] | IC50 (M2PYK [3]) [µM] | effect on M2PYK oligomerisation (tetramer versus monomer) (M2PYK [4]) | Conformation of M2PYK tetramer in co-crystal structure (M2PYK [5]) | inhibition of M1PYK activity (M1PYK [6]) [%] | activation of M2PYK activity (M2PYK [7]) [%] | further results
C[C@H](N)C(=O)O [alanine, L-alanine] | allosteric uncompetitive inhibitors | predominantly tetrameric | 62 | 124 | stabilised tetramers over monomers | T-state |  |  | M2PYK activity (M2PYK [3]; alanine 200–300 µM in the presence of serine ∼0.6 mM): ~65%; M2PYK activity (M2PYK [3]; alanine 200–300 µM, no serine): ~10%
N=C(N)NCCC[C@H](N)C(=O)O [arginine] |  |  |  |  |  |  | 10 |  | 
NCC(=O)O [glycine] |  |  |  |  |  |  | 10 |  | 
N[C@@H](Cc1c[nH]cn1)C(=O)O [histidine] |  |  |  |  |  |  |  | ~30 | M2PYK activity normalised to activity in absence of ligands (100%) (M2PYK [7]): higher than 120%
NCCCC[C@H](N)C(=O)O [lysine] |  |  |  |  |  |  | 10 |  | 
N[C@@H](Cc1ccccc1)C(=O)O [phenylalanine, L-phenylalanine] | allosteric uncompetitive inhibitors | predominantly tetrameric | 205 | 410 | stabilised tetramers over monomers | T-state | 10 |  | M2PYK activity (M2PYK [3]; phenylalanine at ∼0.2 mM, no serine): ~65%; M2PYK activity (M2PYK [3]; phenylalanine ∼0.2 mM in the presence of 0.6 mM serine): nearly full activity; regulatory effect on M1PYK enzymatic activity (M1PYK [8]): non-competitive inhibition; effect on cell proliferation (cell proliferation): favours cell proliferation
N[C@@H](CO)C(=O)O [serine, L-serine] |  | predominantly tetrameric |  |  | stabilised tetramers over monomers | R-state |  | ~30 | M2PYK activity normalised to activity in absence of ligands (100%) (M2PYK [7]): higher than 120%; effect on M2PYK activity in end-point assay (M2PYK [9]): showed activation
N[C@@H](Cc1c[nH]c2ccccc12)C(=O)O [tryptophan, L-tryptophan] | allosteric uncompetitive inhibitors | predominantly tetrameric | 222 | 445 | stabilised tetramers over monomers | T-state |  |  | 
fructose 1,6-bisphosphate [FBP, reference compound] |  |  |  |  |  |  |  | ~40 | regulatory effect on M1PYK activity (M1PYK [6]): little or no regulatory effect; effect on M2PYK activity in end-point assay (M2PYK [9]): showed activation; effect on cell proliferation (cell proliferation): inhibits cell proliferation; effect on M2PYK oligomerisation (M2PYK [10]): stabilised the tetrameric form
